Measurements published in patent US20210070748A1, “INHIBITORS OF BRUTONS TYROSINE KINASE” (Pharmacyclics LLC, priority 2015, published 2021).

Columns and labels:
Format in all cases: biochemical
SRC = SRC (Homo sapiens, UniProt P12931); experiment: Inhibition of a panel of kinases, in vitro HotSpot kinase assay: SRC; settings: D-compounds panel data; 1 μM ATP
Method: The degree of inhibition of a panel of kinases is determined using the in vitro HotSpot kinase assay (purified enzymes, ^33P-ATP, an appropriate substrate and 1 μM ATP).

BTK-WT = target: T1, BTK-WT (Homo sapiens, UniProt Q06187); experiment: Btk in vitro inhibitory activity (one of Method A TR-FRET, Method B electrophoretic mobility shift, Method C radiometric filter binding); settings: D-compounds panel data; read-out: IC50 BTK-WT
T1 construct: purified from insect cells as a full-length construct containing an N-terminal 6X-His tag; His6 (N); made in house; host or cells: insect cells (baculovirus Sf21 in Method B)
T1 sequence (Q06187 whole entry): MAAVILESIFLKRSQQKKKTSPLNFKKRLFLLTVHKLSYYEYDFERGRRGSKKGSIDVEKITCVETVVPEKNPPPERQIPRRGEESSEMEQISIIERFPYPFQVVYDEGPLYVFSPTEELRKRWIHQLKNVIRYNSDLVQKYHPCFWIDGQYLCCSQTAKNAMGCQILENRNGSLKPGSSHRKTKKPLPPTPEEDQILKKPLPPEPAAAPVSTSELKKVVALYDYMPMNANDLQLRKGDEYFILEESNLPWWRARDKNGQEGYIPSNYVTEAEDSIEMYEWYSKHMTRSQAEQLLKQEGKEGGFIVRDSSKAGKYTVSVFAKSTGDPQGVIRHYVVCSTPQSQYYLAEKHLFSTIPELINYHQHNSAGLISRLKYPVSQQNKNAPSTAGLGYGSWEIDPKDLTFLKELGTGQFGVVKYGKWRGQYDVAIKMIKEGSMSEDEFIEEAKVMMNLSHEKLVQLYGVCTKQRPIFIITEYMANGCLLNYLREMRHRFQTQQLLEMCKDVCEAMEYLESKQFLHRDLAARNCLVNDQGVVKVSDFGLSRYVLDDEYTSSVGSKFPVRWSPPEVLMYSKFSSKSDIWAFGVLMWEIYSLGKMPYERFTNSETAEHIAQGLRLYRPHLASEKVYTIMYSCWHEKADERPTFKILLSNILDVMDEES

JAK3 = target: T2, JAK3 (Homo sapiens, UniProt P52333); experiment: Inhibition of a panel of kinases, in vitro HotSpot kinase assay: JAK3; settings: D-compounds panel data; 1 μM ATP; read-out: IC50 JAK3
T2 sequence (P52333 1-1124): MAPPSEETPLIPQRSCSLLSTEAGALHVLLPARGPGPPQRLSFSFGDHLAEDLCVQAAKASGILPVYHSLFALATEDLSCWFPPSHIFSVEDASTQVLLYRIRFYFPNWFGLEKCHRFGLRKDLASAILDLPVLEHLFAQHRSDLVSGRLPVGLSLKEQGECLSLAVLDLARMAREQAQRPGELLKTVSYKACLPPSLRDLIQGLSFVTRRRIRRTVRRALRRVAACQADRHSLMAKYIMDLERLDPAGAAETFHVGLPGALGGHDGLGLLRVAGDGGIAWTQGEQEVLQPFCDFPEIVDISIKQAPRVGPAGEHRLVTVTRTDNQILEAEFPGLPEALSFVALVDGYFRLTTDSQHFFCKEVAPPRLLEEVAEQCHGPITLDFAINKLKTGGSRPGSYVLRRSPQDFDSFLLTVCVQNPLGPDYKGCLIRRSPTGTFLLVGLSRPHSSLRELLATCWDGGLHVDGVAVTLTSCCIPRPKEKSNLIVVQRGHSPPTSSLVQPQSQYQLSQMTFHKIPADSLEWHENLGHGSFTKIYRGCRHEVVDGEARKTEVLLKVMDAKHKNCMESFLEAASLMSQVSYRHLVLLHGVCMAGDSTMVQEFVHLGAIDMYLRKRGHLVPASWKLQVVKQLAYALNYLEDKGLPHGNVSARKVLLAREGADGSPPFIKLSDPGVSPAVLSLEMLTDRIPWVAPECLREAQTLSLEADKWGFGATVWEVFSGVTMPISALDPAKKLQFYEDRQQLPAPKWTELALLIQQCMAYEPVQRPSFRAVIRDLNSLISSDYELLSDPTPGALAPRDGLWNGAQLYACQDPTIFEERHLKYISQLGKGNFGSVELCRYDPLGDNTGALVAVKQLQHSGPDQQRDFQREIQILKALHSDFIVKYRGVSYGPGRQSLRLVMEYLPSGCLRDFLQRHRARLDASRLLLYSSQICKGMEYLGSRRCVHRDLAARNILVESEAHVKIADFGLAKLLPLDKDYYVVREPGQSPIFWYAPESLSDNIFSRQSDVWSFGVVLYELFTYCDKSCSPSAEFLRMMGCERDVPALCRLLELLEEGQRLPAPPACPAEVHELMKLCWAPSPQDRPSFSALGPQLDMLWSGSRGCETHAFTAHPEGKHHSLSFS

Sequence of SRC (P12931 whole entry): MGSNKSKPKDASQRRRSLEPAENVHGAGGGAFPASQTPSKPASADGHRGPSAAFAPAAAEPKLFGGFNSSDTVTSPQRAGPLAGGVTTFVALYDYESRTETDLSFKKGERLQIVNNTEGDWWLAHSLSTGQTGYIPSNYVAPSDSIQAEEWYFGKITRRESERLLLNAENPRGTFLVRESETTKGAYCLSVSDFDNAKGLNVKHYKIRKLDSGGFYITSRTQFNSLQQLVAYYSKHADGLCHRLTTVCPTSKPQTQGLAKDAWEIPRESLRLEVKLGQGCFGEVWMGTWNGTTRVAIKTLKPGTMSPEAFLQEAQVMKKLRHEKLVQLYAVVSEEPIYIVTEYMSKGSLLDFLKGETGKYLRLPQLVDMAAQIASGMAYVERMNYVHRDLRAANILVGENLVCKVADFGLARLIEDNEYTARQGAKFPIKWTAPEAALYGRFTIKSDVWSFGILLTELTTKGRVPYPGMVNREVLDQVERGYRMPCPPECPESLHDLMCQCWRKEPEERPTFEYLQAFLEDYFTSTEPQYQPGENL

| IC50 (SRC) | IC50 (BTK-WT) | IC50 (JAK3) | SMILES |
| --- | --- | --- | --- |
| > 10000 nM | 1000 to 10000 nM | > 10000 nM | C[C@H]1C[C@H](NC(=O)c2ccc(C3CC3)cc2)CN(c2cnc(C(N)=O)c(Nc3cnn(C)c3)n2)C1 [Example D-34, 5-[(3S,5S)-3-(4-cyclopropylbenzamido)-5-methylpiperidin-1-yl]-3-[(1-methyl-1H-pyrazol-4-yl)amino]pyrazine-2-carboxamide] |
| 100 to 1000 nM | ≤ 10 nM | > 10000 nM | C[C@@H]1[C@H](NC(=O)c2ccc(C3CC3)cc2)CCCN1c1cnc(C(N)=O)c(Nc2ccc(N3CCN(C)CC3)c(C(F)(F)F)c2)n1 [Example D-92, 5-[(2R,3R)-3-(4-cyclopropylbenzamido)-2-methylpiperidin-1-yl]-3-{[4-(4-methylpiperazin-1-yl)-3-(trifluoromethyl)phenyl]amino}pyrazine-2-carboxamide] |
| 1000 to 10000 nM | 1000 to 10000 nM | 1000 to 10000 nM | Cc1cc(Nc2nc(N3CCC[C@H](NC(=O)N(C)C)[C@@H]3CO)cnc2C(N)=O)sn1 [Example D-68, 5-[(2R,3S)-3-[(dimethylcarbamoyl)amino]-2-(hydroxymethyl)piperidin-1-yl]-3-[(3-methyl-1,2-thiazol-5-yl)amino]pyrazine-2-carboxamide] |
| 100 to 1000 nM | 10 to 100 nM | 1000 to 10000 nM | C[C@@H]1[C@H](NC(=O)C23CC(C2)C3)CCCN1c1cnc(C(N)=O)c(Nc2cnn(C)c2)n1 [Example D-90, 5-[(2R,3R)-3-{bicyclo[1.1.1]pentane-1-amido}-2-methylpiperidin-1-yl]-3-[(1-methyl-1H-pyrazol-4-yl)amino]pyrazine-2-carboxamide] |
| 10 to 100 nM | ≤ 10 nM | 1000 to 10000 nM | C[C@@H]1[C@H](NC(=O)c2ccc(C3CC3)cc2)CCCN1c1cnc(C(N)=O)c(Nc2ccc(N3CCC(C(=O)N(C)C)CC3)cc2)n1 [Example D-320, 5-[(2R,3R)-3-(4-cyclopropylbenzamido)-2-methylpiperidin-1-yl]-3-({4-[4-(dimethylcarbamoyl)piperidin-1-yl]phenyl}amino)pyrazine-2-carboxamide] |
| 10 to 100 nM | ≤ 10 nM | > 10000 nM | C[C@@H]1[C@H](NC(=O)c2ccc3c(c2)C(C)(C)CO3)CCCN1c1cnc(C(N)=O)c(Nc2cnn(C)c2)n1 [Example D-55, 5-[(2R,3R)-3-(3,3-dimethyl-2,3-dihydro-1-benzofuran-5-amido)-2-methylpiperidin-1-yl]-3-[(1-methyl-1H-pyrazol-4-yl)amino]pyrazine-2-carboxamide] |
| 1000 to 10000 nM | 10 to 100 nM | > 10000 nM | Cn1cc(Nc2nc(N3CC[C@@H](O)[C@H](NC(=O)c4ccc(C5CC5)cc4)C3)cnc2C(N)=O)cn1 (racemic) [Example D-26, (racemic)-trans-5-[3-(4-cyclopropylbenzamido)-4-hydroxypiperidin-1-yl]-3-[(1-methyl-1H-pyrazol-4-yl)amino]pyrazine-2-carboxamide] |
| > 10000 nM | 100 to 1000 nM | > 10000 nM | C[C@@H]1[C@H](NC(=O)c2ccc(C3CC3)cc2F)CCCN1c1cnc(C(N)=O)c(Nc2nc3c(s2)CN(C)CC3)n1 [Example D-62, 5-[(2R,3R)-3-(4-cyclopropyl-2-fluorobenzamido)-2-methylpiperidin-1-yl]-3-({5-methyl-4H,5H,6H,7H-[1,3]thiazolo[5,4-c]pyridin-2-yl}amino)pyrazine-2-carboxamide] |
| 100 to 1000 nM | 10 to 100 nM | 1000 to 10000 nM | CN(C)C(=O)N1CC[C@@H]2[C@H]1CCCN2c1cnc(C(N)=O)c(Nc2cnn(C)c2)n1 (racemic) [Example D-50, (racemic)-cis-5-[1-(dimethylcarbamoyl)-octahydro-1H-pyrrolo[3,2-b]pyridin-4-yl]-3-[(1-methyl-1H-pyrazol-4-yl)amino]pyrazine-2-carboxamide] |
| 100 to 1000 nM | ≤ 10 nM | > 10000 nM | C[C@H]1C[C@@H](NC(=O)c2ccc(C3CC3)cc2)CN(c2cnc(C(N)=O)c(Nc3cnn(C)c3)n2)C1 [Example D-30, 5-[(3R,5S)-3-(4-cyclopropylbenzamido)-5-methylpiperidin-1-yl]-3-[(1-methyl-1H-pyrazol-4-yl)amino]pyrazine-2-carboxamide] |
| 100 to 1000 nM | ≤ 10 nM | 100 to 1000 nM | Cn1cc(Nc2nc(N3C[C@H](CO)C[C@H](NC(=O)c4ccc(C5CC5)cc4)C3)cnc2C(N)=O)cn1 (racemic) [Example D-43, (racemic)-cis-5-[3-(4-cyclopropylbenzamido)-5-(hydroxymethyl)piperidin-1-yl]-3-[(1-methyl-1H-pyrazol-4-yl)amino]pyrazine-2-carboxamide] |
| 10 to 100 nM | 10 to 100 nM | 100 to 1000 nM | C[C@@H]1[C@H](N2CCN(C)C2=O)CCCN1c1cnc(C(N)=O)c(Nc2cnn(C)c2)n1 [Example D-93, 3-[(1-methyl-1H-pyrazol-4-yl)amino]-5-[(2R,3R)-2-methyl-3-(3-methyl-2-oxoimidazolidin-1-yl)piperidin-1-yl]pyrazine-2-carboxamide] |
| 100 to 1000 nM | ≤ 10 nM | 100 to 1000 nM | Cn1cc(Nc2nc(N3CCC[C@@H](NC(=O)c4ccc(C(C)(C)O)cc4)C3)nnc2C(N)=O)cn1 [Example D-39, 3-[(3R)-3-[4-(2-hydroxypropan-2-yl)benzamido]piperidin-1-yl]-5-[(1-methyl-1H-pyrazol-4-yl)amino]-1,2,4-triazine-6-carboxamide] |
| 100 to 1000 nM | 10 to 100 nM | 1000 to 10000 nM | C[C@@H]1C[C@@H](NC(=O)c2ccc(C3CC3)cc2)CN(c2cnc(C(N)=O)c(Nc3cnn(C)c3)n2)C1 [Example D-31, 5-[(3R,5R)-3-(4-cyclopropylbenzamido)-5-methylpiperidin-1-yl]-3-[(1-methyl-1H-pyrazol-4-yl)amino]pyrazine-2-carboxamide] |
| > 10000 nM | > 10000 nM | > 10000 nM | NC(=O)c1ncc(N2CCC[C@@H](NC(=O)c3ccc(C4CC4)cc3F)C2)nc1Nc1cc(-c2ccccc2)ns1 [Example D-3, 5-[(3R)-3-(4-cyclopropyl-2-fluorobenzamido)piperidin-1-yl]-3-[(3-phenyl-1,2-thiazol-5-yl)amino]pyrazine-2-carboxamide] |

| SMILES | IC50 (SRC) | IC50 (BTK-WT) | IC50 (JAK3) |
| --- | --- | --- | --- |
| CN(C)C(=O)N[C@H]1CCCN(c2cnc(C(N)=O)c(Nc3ccc(C4(C)CCN(C5CCCC5)CC4)cc3)n2)[C@H]1CO [Example D-59, 3-{[4-(1-cyclopentyl-4-methylpiperidin-4-yl)phenyl]amino}-5-[(2R,3S)-3-[(dimethylcarbamoyl)amino]-2-(hydroxymethyl)piperidin-1-yl]pyrazine-2-carboxamide] | 1000 to 10000 nM | 100 to 1000 nM | > 10000 nM |
| CN(C)C(=O)N[C@@H]1CCCN(c2cnc(C(N)=O)c(Nc3ccc(C4(C)CCN(C5CCCC5)CC4)cc3)n2)[C@H]1CO [Example D-60, 3-{[4-(1-cyclopentyl-4-methylpiperidin-4-yl)phenyl]amino}-5-[(2R,3R)-3-[(dimethylcarbamoyl)amino]-2-(hydroxymethyl)piperidin-1-yl]pyrazine-2-carboxamide] | 100 to 1000 nM | 100 to 1000 nM | 1000 to 10000 nM |
| CN(C)C(=O)N[C@H]1CCCN(c2cnc(C(N)=O)c(Nc3ccc(C4(C)CCN(C5CCCC5)CC4)cc3)n2)[C@@H]1CO [Example D-61, 3-{[4-(1-cyclopentyl-4-methylpiperidin-4-yl)phenyl]amino}-5-[(2S,3S)-3-[(dimethylcarbamoyl)amino]-2-(hydroxymethyl)piperidin-1-yl]pyrazine-2-carboxamide] | 1000 to 10000 nM | 100 to 1000 nM | > 10000 nM |
| C[C@@H]1[C@H](NC(=O)c2ccc(C3CC3)cc2F)CCCN1c1cnc(C(N)=O)c(Nc2ccc(C3(C)CCN(C4CCCC4)CC3)cc2)n1 [Example D-66, 3-{[4-(1-cyclopentyl-4-methylpiperidin-4-yl)phenyl]amino}-5-[(2R,3R)-3-(4-cyclopropyl-2-fluorobenzamido)-2-methylpiperidin-1-yl]pyrazine-2-carboxamide] | ≤ 10 nM | ≤ 10 nM | 100 to 1000 nM |
